According to paper PMC4893628, “Chalcone-based Selective Inhibitors of a C4 Plant Key Enzyme as Novel Potential Herbicides” (Scientific Reports, 2016):
“And” between values parts separate entries of the source, which are not always exact repeats. Identical values can stand only once. Like-named read-outs stand apart in the source and are kept apart here.

Experiments:
[1] = target: T1, F. trinervia PEPC (Flaveria trinervia, UniProt P30694); test: biochemical; assay type: biochemical; conditions: for Selectivity C4/C3: C4 PEPC over C3 isoform
T1 construct: the full-length ppcA gene of PEPC from F. trinervia (EMBL-Bank X61304); made in house; host or cells: Escherichia coli BL21(DE3)
T1 sequence (P30694 1-966): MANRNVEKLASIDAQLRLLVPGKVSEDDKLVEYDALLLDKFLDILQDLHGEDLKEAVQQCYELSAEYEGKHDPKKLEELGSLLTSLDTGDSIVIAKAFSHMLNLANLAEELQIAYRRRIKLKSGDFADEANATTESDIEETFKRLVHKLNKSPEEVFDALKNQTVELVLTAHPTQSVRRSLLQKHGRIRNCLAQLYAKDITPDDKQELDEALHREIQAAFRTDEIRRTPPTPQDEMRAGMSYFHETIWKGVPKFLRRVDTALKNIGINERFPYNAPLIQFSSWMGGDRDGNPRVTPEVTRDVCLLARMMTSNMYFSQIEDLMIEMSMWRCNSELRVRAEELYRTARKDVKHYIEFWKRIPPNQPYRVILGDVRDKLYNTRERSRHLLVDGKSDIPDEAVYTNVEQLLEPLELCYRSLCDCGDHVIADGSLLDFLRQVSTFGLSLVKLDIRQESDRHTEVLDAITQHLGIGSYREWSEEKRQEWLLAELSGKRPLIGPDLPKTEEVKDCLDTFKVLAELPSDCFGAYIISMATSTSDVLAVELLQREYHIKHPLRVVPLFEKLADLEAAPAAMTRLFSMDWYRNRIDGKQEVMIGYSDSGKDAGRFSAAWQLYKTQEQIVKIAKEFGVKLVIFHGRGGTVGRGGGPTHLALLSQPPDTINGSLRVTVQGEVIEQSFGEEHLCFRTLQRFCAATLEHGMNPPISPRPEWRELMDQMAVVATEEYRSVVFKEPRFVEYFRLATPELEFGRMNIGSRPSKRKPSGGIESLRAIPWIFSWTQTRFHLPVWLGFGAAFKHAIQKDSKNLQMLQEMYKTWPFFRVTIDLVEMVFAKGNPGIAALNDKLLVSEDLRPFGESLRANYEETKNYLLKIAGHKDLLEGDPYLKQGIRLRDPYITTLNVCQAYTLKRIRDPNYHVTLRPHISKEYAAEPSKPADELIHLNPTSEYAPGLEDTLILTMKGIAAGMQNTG
Method: The IC50 values of small molecule compounds on F. pringlei and F. trinervia PEPCs were determined using PEPC coupled spectrophotometric assay. The amount of NADH oxidized by NADH-malate dehydrogenase was measured by the decrease in absorbance at 340 nm in a Beckman DU-800 spectrophotometer, thus the value is in proportion to the corresponding substrate conversion of the enzyme. […] The reactions were started by adding two folds of the Km value of PEP for each enzyme. The data were analyzed using GraFit (Erithacus Software, UK).

[2] = test system: Corynebacterium glutamicum ATCC13032; test: Bacterial growth in microscale cultivation, C. glutamicum; assay type: cell-based; conditions: for activity at 0.3 µM / activity at 3 µM / activity at 30 µM / activity at 8 µM / activity at 80 µM / activity at 400 µM / activity at 160 µM / activity at 4 µM / activity at 40 µM: Corynebacterium glutamicum; for activity at 0.3 µM / activity at 3 µM / activity at 30 µM / Lag Phase / activity at 8 µM / activity at 80 µM / activity at 400 µM / activity at 160 µM / activity at 4 µM / activity at 40 µM: relative to control
Method: The following bacteria were cultivated in the presence of trans-chalcone derived inhibitors: Corynebacterium glutamicum ATCC13032[43], Escherichia coli K-12 MG1655[44], Pseudomonas putida KT2440[45], and Bacillus subtilis 168[46]. The growth of these bacteria was monitored in flower-well plates shaken at 1200 rpm as backscatter at 620 nm (gain 20) using a BioLector® microscale cultivation system (m2p labs, Baesweiler, Germany). For further experimental details please refer to the Supplementary Information.
medium or the appropriate minimal medium and shaken at 140 rpm overnight. For inoculation of
the main culture, cells equivalent to an optical density at 600 nm of 0.5 (C. glutamicum, E. coli,
and P. putida) or 0.25 (B. subtilis) in 800 µL medium were washed and resuspended in fresh
media. Inhibitor substances were dissolved in DMSO and added to the media to a final
Since the least polar trans-chalcone and 2’-hydroxychalcone precipitated in the growth media at
the highest concentrations, the maximal concentration of these compounds was reduced to 400
µM and 100 µM, respectively. The final backscatter at 620 nm, the growth rate (h-1), and the
duration of the lag phase of all cultures were determined in a BioLector microscale cultivation
system in comparison to negative controls supplemented with the solvent DMSO. A longer lag

[3] = C4 PEPC, read-out: IC50 F. trinervia PEPC
[4] = ATCC13032, complex medium, 0.3 µM, read-out: Final Backscatter
[5] = ATCC13032, complex medium, 0.3 µM, read-out: Growth rate
[6] = ATCC13032, complex medium, 3 µM, read-out: Final Backscatter
[7] = ATCC13032, complex medium, 3 µM, read-out: Growth rate
[8] = ATCC13032, complex medium, 30 µM, read-out: Final Backscatter
[9] = ATCC13032, complex medium, 30 µM, read-out: Growth rate
[10] = ATCC13032, minimal medium, 0.3 µM, read-out: Final Backscatter
[11] = ATCC13032, minimal medium, 0.3 µM, read-out: Growth rate
[12] = ATCC13032, minimal medium, 3 µM, read-out: Final Backscatter
[13] = ATCC13032, minimal medium, 3 µM, read-out: Growth rate
[14] = ATCC13032, minimal medium, 30 µM, read-out: Final Backscatter
[15] = ATCC13032, minimal medium, 30 µM, read-out: Growth rate
[16] = IC50 F. trinervia PEPC, C4 PEPC
[17] = ATCC13032, complex medium, 400 µM, read-out: Final Backscatter
[18] = ATCC13032, complex medium, 400 µM, read-out: Growth rate
[19] = ATCC13032, minimal medium, 400 µM, read-out: Final Backscatter
[20] = ATCC13032, minimal medium, 400 µM, read-out: Growth rate
[21] = ATCC13032, complex medium, 4 µM, read-out: Final Backscatter
[22] = ATCC13032, complex medium, 4 µM, read-out: Growth rate
[23] = ATCC13032, complex medium, 40 µM, read-out: Final Backscatter
[24] = ATCC13032, complex medium, 40 µM, read-out: Growth rate
[25] = ATCC13032, minimal medium, 4 µM, read-out: Final Backscatter
[26] = ATCC13032, minimal medium, 4 µM, read-out: Growth rate
[27] = ATCC13032, minimal medium, 40 µM, read-out: Final Backscatter
[28] = ATCC13032, minimal medium, 40 µM, read-out: Growth rate

Structure (SMILES): O=C(/C=C/c1ccc(O)c(O)c1)c1c(O)cc(O)cc1O [Compound 11, 2′,4′,6′,3,4-Pentahydroxy-chalcone]
- lower inhibitory effect / weaker inhibitory potency compared to okanin (12) ([1]; C4 PEPC): ~ four
- Selectivity C4/C3 [1]: 3.3 fold
- IC50 [1, 3]: 2.5 ± 0.1 µM
- decreased / lower selectivity compared to okanin (12) ([1]; C4 vs. C3 PEPC): ~ 14 fold and ~ 13 fold
- activity at 0.3 µM [2, 4]: 99.6%
- activity at 0.3 µM [2, 5]: 94.6%
- activity at 3 µM [2, 6]: 103%
- activity at 3 µM [2, 7]: 104%
- activity at 30 µM [2, 8]: 103%
- activity at 30 µM [2, 9]: 95.3%
- activity at 0.3 µM [2, 10]: 100%
- activity at 0.3 µM [2, 11]: 104%
- activity at 3 µM [2, 12]: 95.1%
- activity at 3 µM [2, 13]: 105%
- activity at 30 µM [2, 14]: 96.2%
- activity at 30 µM [2, 15]: 104%
- Lag Phase ([2]; complex medium, 0.3 µM): 97,0%
- Lag Phase ([2]; complex medium, 3 µM): 97,0%
- Lag Phase ([2]; complex medium, 30 µM): 98,5%
- Lag Phase ([2]; minimal medium, 0.3 µM): 99,3%
- Lag Phase ([2]; minimal medium, 3 µM): 98,5%
- Lag Phase ([2]; minimal medium, 30 µM): 98,5%

Structure (SMILES): O=C(/C=C/c1ccccc1)c1ccccc1 [Compound 1, trans-Chalcone]
- Selectivity C4/C3 [1]: 1.5 fold
- IC50 [1, 16]: 77.5 ± 2.7 µM
- activity at 8 µM ([2]; ATCC13032, complex medium, 8 µM, read-out: Final Backscatter): 98.7%
- activity at 8 µM ([2]; ATCC13032, complex medium, 8 µM, read-out: Growth rate): 105%
- activity at 80 µM ([2]; ATCC13032, complex medium, 80 µM, read-out: Final Backscatter): 104%
- activity at 80 µM ([2]; ATCC13032, complex medium, 80 µM, read-out: Growth rate): 103%
- activity at 400 µM [2, 17]: 106%
- activity at 400 µM [2, 18]: 103%
- activity at 8 µM ([2]; ATCC13032, minimal medium, 8 µM, read-out: Final Backscatter): 99.7%
- activity at 8 µM ([2]; ATCC13032, minimal medium, 8 µM, read-out: Growth rate): 99.3%
- activity at 80 µM ([2]; ATCC13032, minimal medium, 80 µM, read-out: Final Backscatter): 97%
- activity at 80 µM ([2]; ATCC13032, minimal medium, 80 µM, read-out: Growth rate): 97.1%
- activity at 160 µM ([2]; ATCC13032, minimal medium, 160 µM, read-out: Final Backscatter): 98.3%
- activity at 160 µM ([2]; ATCC13032, minimal medium, 160 µM, read-out: Growth rate): 92.5%
- activity at 400 µM [2, 19]: 99.5%
- activity at 400 µM [2, 20]: 87.5%
- Influence on bacterial growth ([2]; Minimal medium, highest concentration tested (10× IC50) if not stated otherwise): μ↓ (5× IC50)
- Lag Phase ([2]; complex medium, 8 µM): 100,0%
- Lag Phase ([2]; complex medium, 80 µM): 99,5%
- Lag Phase ([2]; complex medium, 400 µM): 103,7%
- Lag Phase ([2]; minimal medium, 8 µM): 100,0%
- Lag Phase ([2]; minimal medium, 80 µM): 102,3%
- Lag Phase ([2]; minimal medium, 160 µM): 109,9%
- Lag Phase ([2]; minimal medium, 400 µM): 113,6%

Structure (SMILES): O=C(/C=C/c1cc(O)c(O)c(O)c1)c1ccc(O)cc1O [Compound 9, 2′,4′,3,4,5-Pentahydroxychalcone]
- Selectivity C4/C3 [1]: 8.1 fold
- IC50 [1, 3]: 4.2 ± 1.4 µM
- activity at 0.3 µM [2, 4]: 99.6%
- activity at 0.3 µM [2, 5]: 104%
- activity at 3 µM [2, 6]: 102%
- activity at 3 µM [2, 7]: 111%
- activity at 30 µM [2, 8]: 96.7%
- activity at 30 µM [2, 9]: 112%
- activity at 0.3 µM [2, 10]: 99.9%
- activity at 0.3 µM [2, 11]: 104%
- activity at 3 µM [2, 12]: 96.9%
- activity at 3 µM [2, 13]: 103%
- activity at 30 µM [2, 14]: 97.7%
- activity at 30 µM [2, 15]: 97.3%
- Lag Phase ([2]; complex medium, 0.3 µM): 98,5%
- Lag Phase ([2]; complex medium, 3 µM): 98,0%
- Lag Phase ([2]; complex medium, 30 µM): 94,5%
- Lag Phase ([2]; minimal medium, 0.3 µM): 98,6%
- Lag Phase ([2]; minimal medium, 3 µM): 98,6%
- Lag Phase ([2]; minimal medium, 30 µM): 98,6%

Structure (SMILES): O=C(/C=C/c1ccc(O)cc1)c1ccc(O)cc1O [Compound 6, 2′,4′,4-Trihydroxychalcone]
- Selectivity C4/C3 [1]: 1.5 fold
- IC50 [1, 16]: 38.2 ± 10.9 µM
- activity at 4 µM [2, 21]: 99.8%
- activity at 4 µM [2, 22]: 99.5%
- activity at 40 µM [2, 23]: 98.2%
- activity at 40 µM [2, 24]: 101%
- activity at 400 µM [2, 17]: 97.7%
- activity at 400 µM [2, 18]: 79.8%
- activity at 4 µM [2, 25]: 100%
- activity at 4 µM [2, 26]: 101%
- activity at 40 µM [2, 27]: 101%
- activity at 40 µM [2, 28]: 97.7%
- activity at 400 µM [2, 19]: 101%
- activity at 400 µM [2, 20]: 80.5%
- Lag Phase ([2]; complex medium, 4 µM): 99,3%
- Lag Phase ([2]; complex medium, 40 µM): 101,3%
- Lag Phase ([2]; complex medium, 400 µM): 105,3%
- Lag Phase ([2]; minimal medium, 4 µM): 98,5%
- Lag Phase ([2]; minimal medium, 40 µM): 101,5%
- Lag Phase ([2]; minimal medium, 400 µM): 127,6%

Structure (SMILES): O=C(/C=C/c1ccccc1)c1ccc(O)cc1O [Compound 4, 2′,4′-Dihydroxychalcone]
- Selectivity C4/C3 [1]: 2.1 fold
- IC50 [1, 3]: 25.2 ± 1.3 µM
- activity at 4 µM [2, 21]: 101%
- activity at 4 µM [2, 22]: 113%
- activity at 40 µM [2, 23]: 105%
- activity at 40 µM [2, 24]: 115%
- activity at 400 µM [2, 17]: 107%
- activity at 400 µM [2, 18]: 91.6%
- activity at 4 µM [2, 25]: 102%
- activity at 4 µM [2, 26]: 98.9%
- activity at 40 µM [2, 27]: 100%
- activity at 40 µM [2, 28]: 95.5%
- activity at 400 µM [2, 19]: 110%
- activity at 400 µM [2, 20]: 65.2%
- Lag Phase ([2]; complex medium, 4 µM): 97,4%
- Lag Phase ([2]; complex medium, 40 µM): 96,2%
- Lag Phase ([2]; complex medium, 400 µM): 116,6%
- Lag Phase ([2]; minimal medium, 4 µM): 98,7%
- Lag Phase ([2]; minimal medium, 40 µM): 100,0%
- Lag Phase ([2]; minimal medium, 400 µM): 169,9%
